{
  "source": "patent US20090130098A1",
  "about": "“Specific therapy using integrin ligands for treating cancer” (Merck Patent GmbH, priority 2006, published 2009)",
  "key": {"[1]": {"test_system": "recurrent glioblastoma (GBM)", "experiment": "Phase IIa trial of cilengitide single agent therapy in recurrent glioblastoma", "format": "in vivo, human", "method": "Background: The present phase IIa study was designed to evaluate the safety, toxicity, and clinical activity of the cyclic RGD pentapeptide cilengitide ((=cyclo-(Arg-Gly-Asp-DPhe-NMe-Val)), an inhibitor of integrins αvβ3 and αvβ5, as a single agent at doses of 500 and 2000 mg in patients (pts) with recurrent glioblastoma (GBM).\nMethods: In this multicenter, open-label, randomized, uncontrolled study, pts with GBM and measurable disease that had relapsed after previous therapy with temozolomide and radiotherapy were randomized to receive cilengitide at doses of either 500 mg or 2000 mg i.v., 2×/week, until progression. Histopathology diagnosis and MRI imaging were subject to independent blinded review. The primary endpoint was Progression Free Survival (PFS) at 6 months (mths). Secondary endpoints included response, survival, time to disease progression, safety, tolerability and pharmacokinetics."}, "[2]": {"test_system": "newly diagnosed glioblastoma (GBM)", "experiment": "Phase I/IIa trial of cilengitide with temozolomide and radiotherapy in newly diagnosed glioblastoma", "format": "in vivo, human", "details": "cilengitide 500 mg + TMZ/RT", "method": "Purpose: To evaluate safety, toxicity, and efficacy of the combination of the cyclic RGD pentapeptide Cilengitide (=cyclo-(Arg-Gly-Asp-DPhe-NMe-Val)), an inhibitor of integrins αvβ3 and αvβ5, in addition to standard temozolomide (TMZ) and radiotherapy (RT).\nPatients and methods: Fifty-two pts (PS 0-1: 92%, 2: 8%; median age 57 yrs) after biopsy (n= 9/17%) or tumor resection (n= 43/83%) were treated with standard TMZ/RT (Stupp et al. NEJM 2005). In addition Cilengitide (500 mg i.v., 2×/week) was started one week before TMZ/RT and given throughout for the duration of chemotherapy or until progression. Primary endpoint was progression free survival rate at 6 months (target: 65%). Patients were followed with MRI every 2 months. Histopathologic diagnosis and MRI imaging were independently reviewed, MGMT promotor methylation status was assessed in 45 (86.5%) pts."}, "various brain tumors": {"test_system": "various brain tumors", "details": "human, in vivo; cited from earlier work"}},
  "data": [
    {"smiles": "CC(C)[C@H]1C(=O)N[C@@H](CCCN=C(N)N)C(=O)NCC(=O)N[C@@H](CC(=O)O)C(=O)N[C@H](Cc2ccccc2)C(=O)N1C", "note": "[cilengitide, cyclo-(Arg-Gly-Asp-DPhe-NMeVal)]", "values": [
      {"measurement": "pts who received 12 or more cycles of therapy", "setting": "[1]; 500 mg", "value": 4, "unit": "pts"},
      {"measurement": "pts who received 12 or more cycles of therapy", "setting": "[1]; 2000 mg", "value": 6, "unit": "pts"},
      {"measurement": "tumor control, 2000 mg vs 500 mg", "setting": "[1]; 2000 mg 2x/week, not statistically significant", "value": "trend towards better tumor control"},
      {"measurement": "Treatment related NCI CTC grade 3 AE: arthralgia/myalgia", "setting": "[1]; at 500 mg", "value": 1, "unit": "patient"},
      {"measurement": "Treatment related NCI CTC grade 3 AE: elevated liver enzymes", "setting": "[1]; at 500 mg", "value": 1, "unit": "patient"},
      {"measurement": "Treatment related NCI CTC grade 3 AE: weight increase/edema", "setting": "[1]; at 2000 mg", "value": 1, "unit": "patient"},
      {"measurement": "single agent activity in recurrent glioblastoma", "setting": "[1]; in vivo", "value": "advantageous single agent activity"},
      {"measurement": "non-hematologic grade 3: constitutional symptoms (asthenia, fatigue, anorexia)", "setting": "[2]", "value": 3, "unit": "n"},
      {"measurement": "non-hematologic grade 3: deep venous thrombosis and pulmonary embolism", "setting": "[2]", "value": 1, "unit": "n"},
      {"measurement": "non-hematologic grade 3: elevated liver function tests", "setting": "[2]", "value": 1, "unit": "n"},
      {"measurement": "sigmoid perforation (grade 2)", "setting": "[2]; patient with history of sigmoid diverticulosis", "value": "One patient"},
      {"measurement": "MTD", "setting": "various brain tumors", "value": "no known MTD"}
    ]}
  ]
}
